# Data reported in ChEMBL document CHEMBL1201862, “PubChem BioAssay data set” (2004).
#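 Growth conditions: 96-well plates. Treatment: test compound, 48 hours, 5 concentrations. Analysis: linear interpolation between bracketing concentrations; unreached endpoints set to highest concentration. GI50 = concentration required for 50% inhibition of growth.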 The source made the active and inactive calls. No stated cut-off is given here; in the data, active = GI50 up to about 1.1 µM and inactive = higher.
# Key:
# Experiment in all cases: DTP human tumour cell line panel, 48 h
# SNB-19 = system: SNB-19
# U-251 = system: U-251
# SK-MEL-2 = system: SK-MEL-2
# CCRF-CEM = system: CCRF-CEM
# A549 = system: A549
# MDA-N = system: MDA-N
# NCI-H226 = system: NCI-H226
# 786-0 = system: 786-0
# SK-OV-3 = system: SK-OV-3
# HT-29 = system: HT-29
# ACHN = system: ACHN
# DU-145 = system: DU-145
# MDA-MB-231 = system: MDA-MB-231
# SNB-75 = system: SNB-75
# SK-MEL-5 = system: SK-MEL-5
# TK-10 = system: TK-10
# NCI-H23 = system: NCI-H23
# LOX IMVI = system: LOX IMVI
Compound,GI50 (SNB-19),GI50 (U-251),GI50 (SK-MEL-2),GI50 (CCRF-CEM),GI50 (A549),GI50 (MDA-N),GI50 (NCI-H226),GI50 (786-0),GI50 (SK-OV-3),GI50 (HT-29),GI50 (ACHN),GI50 (DU-145),GI50 (MDA-MB-231),GI50 (SNB-75),GI50 (SK-MEL-5),GI50 (TK-10),GI50 (NCI-H23),GI50 (LOX IMVI)
COC(=O)c1c(C#C[Si](C)(C)C)c(C#C[Si](C)(C)C)c(C#C[Si](C)(C)C)c(C#C[Si](C)(C)C)c1C(=O)OC,> 100 µM (inactive),> 100 µM (inactive),> 100 µM (inactive),> 100 µM (inactive),> 100 µM (inactive),> 100 µM (inactive),> 100 µM (inactive),> 100 µM (inactive),> 100 µM (inactive),> 100 µM (inactive),> 100 µM (inactive),> 100 µM (inactive),> 100 µM (inactive),> 100 µM (inactive),> 100 µM (inactive),> 100 µM (inactive),> 100 µM (inactive),–
CC1(C)OCC([C@H]2O[C@@H](CC(=S)NCCCCCCCCCCCCNC(=S)C[C@H]3O[C@@H](C4COC(C)(C)O4)[C@H]4OC(C)(C)O[C@H]43)[C@H]3OC(C)(C)O[C@H]32)O1 (some centres undefined),–,35 µM (inactive),58.5 µM (inactive),–,14.7 µM (inactive),58.5 µM (inactive),> 100 µM (inactive),83.8 µM (inactive),–,45.7 µM (inactive),49.3 µM (inactive),> 100 µM (inactive),> 100 µM (inactive),> 100 µM (inactive),23.7 µM (inactive),> 100 µM (inactive),30.7 µM (inactive),79.1 µM (inactive)
CC(CO)CCNc1ncnc2c1ncn2CCC(=O)OC(C)(C)C (centres undefined),> 100 µM (inactive),–,–,> 100 µM (inactive),> 100 µM (inactive),> 100 µM (inactive),> 100 µM (inactive),> 100 µM (inactive),> 100 µM (inactive),> 100 µM (inactive),> 100 µM (inactive),> 100 µM (inactive),> 100 µM (inactive),> 100 µM (inactive),> 100 µM (inactive),> 100 µM (inactive),> 100 µM (inactive),> 100 µM (inactive)
O=C(CC(C(=O)c1ccco1)c1ccsc1)c1ccco1 (centres undefined),–,> 100 µM (inactive),–,> 100 µM (inactive),28.8 µM (inactive),> 100 µM (inactive),> 100 µM (inactive),> 100 µM (inactive),> 100 µM (inactive),> 100 µM (inactive),> 100 µM (inactive),> 100 µM (inactive),56.8 µM (inactive),47 µM (inactive),> 100 µM (inactive),> 100 µM (inactive),> 100 µM (inactive),> 100 µM (inactive)
Cn1c(-c2cccs2)cc(-c2ccsc2)c1-c1cccs1,> 100 µM (inactive),> 100 µM (inactive),–,> 100 µM (inactive),> 100 µM (inactive),55.3 µM (inactive),> 100 µM (inactive),> 100 µM (inactive),> 100 µM (inactive),55.3 µM (inactive),61.1 µM (inactive),87.1 µM (inactive),99.1 µM (inactive),62.1 µM (inactive),> 10 µM (inactive),> 100 µM (inactive),45.9 µM (inactive),–
Cn1ccnc1SC(F)(F)c1nc2ccccc2o1,–,> 100 µM (inactive),> 100 µM (inactive),> 100 µM (inactive),> 100 µM (inactive),> 100 µM (inactive),> 100 µM (inactive),> 100 µM (inactive),> 100 µM (inactive),> 100 µM (inactive),> 100 µM (inactive),> 100 µM (inactive),> 100 µM (inactive),0.043 µM (active),> 100 µM (inactive),> 100 µM (inactive),> 100 µM (inactive),–
O=c1[nH]c(=O)n(COCCOCc2ccccc2)cc1Nc1ccccc1,> 100 µM (inactive),> 100 µM (inactive),> 100 µM (inactive),> 100 µM (inactive),> 100 µM (inactive),> 100 µM (inactive),> 100 µM (inactive),60.1 µM (inactive),> 100 µM (inactive),> 100 µM (inactive),> 100 µM (inactive),> 100 µM (inactive),> 100 µM (inactive),> 100 µM (inactive),–,> 100 µM (inactive),> 100 µM (inactive),> 100 µM (inactive)
Cc1cn(C2CC(OC(c3ccccc3)(c3ccccc3)c3ccccc3)C(COC(c3ccccc3)(c3ccccc3)c3ccccc3)O2)c(=O)[nH]c1=O (centres undefined),11.7 µM (inactive),–,23.7 µM (inactive),> 100 µM (inactive),34.3 µM (inactive),31.8 µM (inactive),26.1 µM (inactive),> 100 µM (inactive),> 100 µM (inactive),61 µM (inactive),68.4 µM (inactive),> 100 µM (inactive),37.7 µM (inactive),58.7 µM (inactive),43.3 µM (inactive),42.5 µM (inactive),–,60 µM (inactive)
C=C1C(OC2O[C@@H]3O[C@@]4(C)CC[C@H]5[C@H](C)CC[C@@H](C2=C)[C@@]35O4)O[C@@H]2O[C@@]3(C)CC[C@H]4[C@H](C)CC[C@@H]1[C@@]24O3 (some centres undefined),> 50 µM (inactive),> 50 µM (inactive),> 50 µM (inactive),> 50 µM (inactive),> 50 µM (inactive),> 50 µM (inactive),> 50 µM (inactive),> 50 µM (inactive),> 50 µM (inactive),> 50 µM (inactive),> 50 µM (inactive),> 50 µM (inactive),> 50 µM (inactive),–,> 50 µM (inactive),> 50 µM (inactive),> 50 µM (inactive),> 50 µM (inactive)
CCN1/C(=C/C#C/C(C)=C\c2sc3ccc(Cl)cc3[n+]2CC)Sc2ccc(Cl)cc21,4.09 µM (inactive),3.3 µM (inactive),1.98 µM (inactive),0.389 µM (active),3.57 µM (inactive),3.13 µM (inactive),3.82 µM (inactive),3.1 µM (inactive),5.55 µM (inactive),3.08 µM (inactive),3.38 µM (inactive),3.68 µM (inactive),5.93 µM (inactive),2.61 µM (inactive),2.09 µM (inactive),4.28 µM (inactive),–,3.31 µM (inactive)
O=C1O[B-](c2ccccc2)(c2ccccc2)[NH+]2CCCC12 (centres undefined),> 100 µM (inactive),> 100 µM (inactive),97.7 µM (inactive),> 100 µM (inactive),> 100 µM (inactive),85.1 µM (inactive),49 µM (inactive),50.7 µM (inactive),> 100 µM (inactive),> 100 µM (inactive),75.7 µM (inactive),> 100 µM (inactive),> 100 µM (inactive),–,33 µM (inactive),44.4 µM (inactive),74 µM (inactive),> 100 µM (inactive)
CC(=O)NC1C(OCc2ccccc2)OC(CO)C(O)C1OCC(=O)N[C@@H](C)C(=O)N[C@H](CCC(=O)NCCNc1ccc([N+](=O)[O-])c2[nH]c3ccccc3c(=O)c12)C(N)=O (some centres undefined),23 µM (inactive),29.5 µM (inactive),–,67.6 µM (inactive),–,27.9 µM (inactive),12.8 µM (inactive),18.7 µM (inactive),81.5 µM (inactive),19.4 µM (inactive),12.1 µM (inactive),33.4 µM (inactive),28.1 µM (inactive),22.8 µM (inactive),24.8 µM (inactive),15.4 µM (inactive),32.3 µM (inactive),25.9 µM (inactive)
CCn1c2c(c3ccccc3c1=O)C(=O)c1ccccc1-2,> 100 µM (inactive),> 100 µM (inactive),> 100 µM (inactive),22 µM (inactive),> 100 µM (inactive),> 100 µM (inactive),> 100 µM (inactive),> 100 µM (inactive),> 100 µM (inactive),> 100 µM (inactive),–,> 100 µM (inactive),85.7 µM (inactive),> 100 µM (inactive),50.1 µM (inactive),> 100 µM (inactive),> 100 µM (inactive),> 100 µM (inactive)
O=[N+]([O-])c1cccc(/C=N/N=c2\ccc3ccccc3[nH]2)c1O,4.92 µM (inactive),1.11 µM (active),4.4 µM (inactive),0.175 µM (active),2.4 µM (inactive),5.64 µM (inactive),2.64 µM (inactive),0.658 µM (active),1.86 µM (inactive),0.632 µM (active),0.478 µM (active),2.26 µM (inactive),2.78 µM (inactive),–,0.984 µM (active),2.51 µM (inactive),1.82 µM (inactive),1.47 µM (inactive)
N#Cc1c(O)cc(=O)n2c1[nH]c1ccccc12,> 100 µM (inactive),> 100 µM (inactive),> 100 µM (inactive),> 100 µM (inactive),> 100 µM (inactive),> 100 µM (inactive),> 100 µM (inactive),> 100 µM (inactive),> 100 µM (inactive),> 100 µM (inactive),> 100 µM (inactive),> 100 µM (inactive),> 100 µM (inactive),> 100 µM (inactive),> 100 µM (inactive),> 100 µM (inactive),> 100 µM (inactive),–
Cc1c2c(nc3ccccc13)C(=O)c1cccnc1C2=O,16.3 µM (inactive),10.8 µM (inactive),–,22.4 µM (inactive),1.66 µM (inactive),1.77 µM (inactive),18.9 µM (inactive),33.3 µM (inactive),> 100 µM (inactive),9.84 µM (inactive),10.6 µM (inactive),21.6 µM (inactive),8.34 µM (inactive),11.1 µM (inactive),0.381 µM (active),> 100 µM (inactive),6.46 µM (inactive),10.7 µM (inactive)
